For data set [1], the system named is sensitive neurons extracted from rat embryo dorsal spinal ganglions. In words: lactate dehydrogenase (LDH) released in the extracellular medium of the co-culture with or without cisplatin. In kind it is cell-based. Conditions: 24 hours, FIG. 3. The method, then: (§1) To be more precise, they studied the survival of sensitive neurons extracted from rat embryo dorsal spinal ganglions cultured in the presence of a cytotoxic agent, cisplatin, co-applied with stiripentol.
(§2) The co-culturing, for 5 days, of sensitive neurons (˜5-10% of the cultivated cell population) associated with Schwann cells and fibroblasts (˜95-90% of the cultivated cell population) is carried out in an appropriate medium as described in Hall et al. (1997) J. Neurosci. 17:2775-2784. […]
(§3) The density of the neuritic networks (axons and dendrites) labelled by an anti-β-tubulin antibody (ref T8660, Sigma, France) is then determined by measuring their length, together with the number of cell bodies marked by means of an anti-MAP2 antibody (ref M4403, Sigma, France) as indicated by Gill & Windebank (1998) J. Clin. Invest. […] Also determined is the amount of lactate dehydrogenase (LDH) (Kit de detection (detection kit), ref 1 644 793, Roche) released in the extracellular medium, the amount of which is proportional to the number of cells which are damaged or dead owing to the cisplatin-induced cell lysis, as indicated by Koh & Choi (1987) J Neurosci Methods 20:83-90.

For data set [2] the test system is unchanged. The data set can be described thus: density of neuritic networks (total neurite length, anti-β-tubulin labelling) in sensitive neuron co-culture with or without cisplatin. Conditions: 24 hours, FIG. 1. The data set is classed as cell-based. The method, then:
as §1, §2, §3

For data set [3] the test system is unchanged. The data set can be described thus: number of cell bodies (anti-MAP2 labelling) in sensitive neuron co-culture with or without cisplatin. Conditions: 24 hours, FIG. 2. The data set is classed as cell-based. The method, then:
as §1, §2, §3

Data set [4] has the same test system. The data set can be described thus: in vitro model of peripheral neuropathy (cisplatin), overall neuroprotective activity. In kind it is cell-based. Conditions: stiripentol 1-10 μM versus NGF 5 ng/ml; cisplatin 4.5 μg/ml, 24 hours. The method, then:
as §1, §2, §3

For data set [5], the target named is CYP3A4 (Homo sapiens, UniProt P08684). Conditions: Tran et al. (1997); cited from earlier work.
Chain of CYP3A4 (P08684 whole entry): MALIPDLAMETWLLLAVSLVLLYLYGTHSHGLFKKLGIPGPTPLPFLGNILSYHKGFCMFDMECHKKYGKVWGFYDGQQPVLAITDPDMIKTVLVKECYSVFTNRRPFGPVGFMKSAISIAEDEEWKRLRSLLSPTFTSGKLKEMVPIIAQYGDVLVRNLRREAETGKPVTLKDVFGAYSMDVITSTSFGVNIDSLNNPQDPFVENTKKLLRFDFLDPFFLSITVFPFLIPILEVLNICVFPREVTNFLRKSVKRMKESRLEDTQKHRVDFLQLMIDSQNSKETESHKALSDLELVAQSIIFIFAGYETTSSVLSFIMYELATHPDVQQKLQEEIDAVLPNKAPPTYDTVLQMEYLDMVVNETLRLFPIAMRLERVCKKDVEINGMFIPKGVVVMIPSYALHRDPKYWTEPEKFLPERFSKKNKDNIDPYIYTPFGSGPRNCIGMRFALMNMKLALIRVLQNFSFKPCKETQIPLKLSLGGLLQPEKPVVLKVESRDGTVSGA
Data set [6] has as its target CYP1A2 (Homo sapiens, UniProt P05177). Conditions: Tran et al. (1997); cited from earlier work.
In data set [7] the test system is uptake of gamma-aminobutyric acid (GABA). Conditions: cited from earlier work.
Where [8] appears, read: in the presence of cisplatin 4.5 μg/ml, stiripentol 1, 3, 10 μM, NGF 5 ng/ml.

Entries after “also recorded” stand apart in the source; their conditions may differ.

Chain of CYP1A2 (P05177 whole entry): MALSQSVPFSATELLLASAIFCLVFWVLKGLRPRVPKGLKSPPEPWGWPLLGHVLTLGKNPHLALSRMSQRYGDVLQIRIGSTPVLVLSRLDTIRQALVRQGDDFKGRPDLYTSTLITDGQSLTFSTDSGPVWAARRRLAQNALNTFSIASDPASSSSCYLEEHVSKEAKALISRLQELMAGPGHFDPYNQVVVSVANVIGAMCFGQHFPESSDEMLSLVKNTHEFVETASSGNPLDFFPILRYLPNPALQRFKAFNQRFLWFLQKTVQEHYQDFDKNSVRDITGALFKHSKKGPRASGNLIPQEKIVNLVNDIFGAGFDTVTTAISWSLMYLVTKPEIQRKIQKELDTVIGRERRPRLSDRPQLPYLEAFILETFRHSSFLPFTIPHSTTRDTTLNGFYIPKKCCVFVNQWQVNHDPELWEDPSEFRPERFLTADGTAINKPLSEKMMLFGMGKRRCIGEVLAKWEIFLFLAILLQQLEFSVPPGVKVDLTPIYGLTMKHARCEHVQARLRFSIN

With `N.N.[Cl][Pt][Cl]` [cisplatin], in data set [1] (cisplatin 4.5 μg/ml alone), the “effect of cisplatin on cell lysis (LDH release)” value is listed as “cell lysis”. Further, in data set [2] (cisplatin 4.5 μg/ml alone), the “effect of cisplatin on the density of the neuritic networks” value is on record as “reduction in the density of the neuritic networks”. Moreover, in data set [3] (cisplatin 4.5 μg/ml alone), the “effect of cisplatin on the cell bodies” value is recorded as “degeneration of the cell bodies”.
For the compound `CC(C)(C)C(O)/C=C/c1ccc2c(c1)OCO2` (stereo not shown) [stiripentol, 4,4-dimethyl-1-[(3,4-methylenedioxy)-phenyl]-1-penten-3-ol], the “cell release of LDH” value in data set [1] (setting [8]) is listed as “neuroprotective effect”. Further, in data set [4], the “neuroprotective activity compared with NGF” value is “neuroprotective effect equivalent to that of NGF; also recorded: neuroprotective activity of the same order as that of NGF”. Besides, the “density of the neuritic networks (total length of the neurites)” value in data set [2] (setting [8]) is on record as “reduce the decrease in the density of the neuritic networks”. Besides, the “inhibition of CYP3A4” value in data set [5] is on record as “inhibitor”. For the same compound, the “number of neuronal cell bodies” value in data set [3] (setting [8]) is recorded as “reduce the decrease”. Moreover, the “inhibition of CYP1A2” value in data set [6] is “inhibitor”. For the same compound, the “inhibition of the uptake of gamma-aminobutyric acid (GABA)” value in data set [7] is given as “inhibits the uptake of gamma-aminobutyric acid (GABA)”.

The values above are taken from patent publication US8927600B2, “Compound for use in the treatment of peripheral neuropathies” (Biocodex, priority 2009, dated 2015).
